Experiments:
Mus musculus [1] = assay: Stimulation of spontaneous locomotor activity of compound was measured in mice at a dose of 0.10 mmol/kg); assay type: functional; parameters: unit not given here
Mus musculus [2] = assay: Stimulation of spontaneous locomotor activity of compound was measured in mice at a dose of 0.20 mmol/kg); assay type: functional
Mus musculus [3] = assay: Stimulation of spontaneous locomotor activity of compound was measured in mice at a dose of 0.025 mmol/kg); assay type: functional; parameters: unit not given here
Mus musculus [4] = assay: Stimulation of spontaneous locomotor activity of compound was measured in mice at a dose of 0.05 mmol/kg); assay type: functional; parameters: unit not given here
Mus musculus [5] = assay: Modification of circling behavior in mice with unilateral striatal lesions produced by 6-hydroxydopamine injection was measured at a dose of 0.10 mmol/kg; assay type: functional
[6] = Partition coefficient (logP); assay type: physicochemical; details: octanol/water
Mus musculus [7] = assay: Stimulation of spontaneous locomotor activity of compound was measured in mice at a dose of 0.2 mmol/kg); assay type: functional
Mus musculus [8] = assay: Stimulation of spontaneous locomotor activity of compound was measured in mice at a dose of 0.4 mmol/kg); assay type: functional
Mus musculus [9] = assay: Modification of circling behavior in mice with unilateral striatal lesions produced by 6-hydroxydopamine injection was measured at a dose of 0.2 mmol/kg; assay type: functional
Mus musculus [10] = assay: Stimulation of spontaneous locomotor activity of compound was measured in mice at a dose of 0.1 mmol/kg); assay type: functional
Mus musculus [11] = assay: Modification of circling behavior in mice with unilateral striatal lesions produced by 6-hydroxydopamine injection was measured at a dose of 0.013 mmol/kg; assay type: functional
Mus musculus [12] = assay: Stimulation of spontaneous locomotor activity of compound was measured in mice at a dose of 0.0125 mmol/kg); assay type: functional
Mus musculus [13] = assay: Modification of circling behavior in mice with unilateral striatal lesions produced by 6-hydroxydopamine injection was measured at a dose of 0.15 mmol/kg; assay type: functional
Mus musculus [14] = assay: Modification of circling behavior in mice with unilateral striatal lesions produced by 6-hydroxydopamine injection was measured at a dose of 0.20 mmol/kg; assay type: functional
Mus musculus [15] = assay: Modification of circling behavior in mice with unilateral striatal lesions produced by 6-hydroxydopamine injection was measured at a dose of 0.05 mmol/kg; assay type: functional
Mus musculus [16] = assay: Stimulation of spontaneous locomotor activity of compound was measured in mice at a dose of 0.02 mmol/kg); assay type: functional
Mus musculus [17] = assay: Stimulation of spontaneous locomotor activity of compound was measured in mice at a dose of 0.04 mmol/kg); assay type: functional
Mus musculus [18] = assay: Stimulation of spontaneous locomotor activity of compound was measured in mice at a dose of 0.01 mmol/kg); assay type: functional
Mus musculus [19] = assay: Modification of circling behavior in mice with unilateral striatal lesions produced by 6-hydroxydopamine injection was measured at a dose of 0.027 mmol/kg; assay type: functional
Mus musculus [20] = assay: Stimulation of spontaneous locomotor activity of compound was measured in mice at a dose of 0.4 mmol/kg); Lethal; assay type: functional, organism-based
Mus musculus [21] = assay: Modification of circling behavior in mice with unilateral striatal lesions produced by 6-hydroxydopamine injection was measured at a dose of 0.1 mmol/kg; assay type: functional
Mus musculus [22] = assay: Stimulation of spontaneous locomotor activity of compound was measured in mice at a dose of 0.30 mmol/kg); assay type: functional
Mus musculus [23] = assay: Stimulation of spontaneous locomotor activity of compound was measured in mice at a dose of 0.15 mmol/kg); assay type: functional

SMILES | Activity (Mus musculus [1]) | Activity (Mus musculus [2]) | Activity (Mus musculus [3]) | Activity (Mus musculus [4]) | Net turns/min (Mus musculus [5]) | logP [6] | Activity (Mus musculus [7]) | Activity (Mus musculus [10]) | Net turns/min (Mus musculus [13]) | also measured
CCC12CC3CC(N)(C1)CC(CC)(C3)C2 | 716 | 478 | 154 | 383 | 1.6 | 4.36 |  |  |  | 
NC12CC3CC(CC(C3)C1)C2 [AMANTADINE] |  |  |  | 87 |  | 2.44 | 243 | 201 |  | Activity (Mus musculus [8]): 44; Net turns/min (Mus musculus [9]): 1.1
CCCC12CC3CC(CC(N)(C3)C1)C2 | 94 |  | 75 | 75 |  | 3.76 |  |  |  | 
CN1CCc2cccc3c2[C@H]1Cc1ccc(O)c(O)c1-3 [APOMORPHINE] |  |  |  |  |  |  |  |  |  | Net turns/min (Mus musculus [11]): 2.6
CC12CC3CC(C)(C1)CC(N)(C3)C2 [MEMANTINE] | 916 | 1378 | 264 | 377 | 2.6 |  |  |  | 4.3 | Activity (Mus musculus [12]): 181; Net turns/min (Mus musculus [14]): 2.6; Net turns/min (Mus musculus [15]): 1
CC(N)Cc1ccccc1 (stereo not drawn) [AMPHETAMINE] |  |  |  |  |  |  |  |  |  | Activity (Mus musculus [16]): 562; Activity (Mus musculus [17]): 993; Activity (Mus musculus [18]): 177; Net turns/min (Mus musculus [19]): 5.5
CC12CC3CC(C1)CC(N)(C3)C2 |  |  |  | 37 |  | 3.01 | 383 | 144 |  | 
CC12CC3(C)CC(C)(C1)CC(N)(C2)C3 |  |  | 148 | 264 |  | 4.01 | 472 | 351 | 1.2 | Activity (Mus musculus [20]): Lethal; Net turns/min (Mus musculus [21]): 1
CCC12CC3CC(CC(N)(C3)C1)C2 | 237 | 522 | 61 | 147 | 1.2 | 3.4 |  |  | 2 | Activity (Mus musculus [22]): 368; Net turns/min (Mus musculus [14]): 1.2; Activity (Mus musculus [23]): 432; Net turns/min (Mus musculus [15]): 1.3

Source: ChEMBL document CHEMBL1121932, “Structure-anti-Parkinson activity relationships in the aminoadamantanes. Influence of bridgehead substitution” (J Med Chem, 1982)
